Experimental data: BindingDB's records for doi:10.1038/sj.bjp.0705964 (Johnson & Johnson Pharmaceutical Research and Development, 2004)
pKi: −log10 of the molar value.

What was measured:
Histamine H2 receptor = Histamine H2 receptor (Homo sapiens, UniProt P25021)
Histamine H4 receptor = Histamine H4 receptor (Homo sapiens, UniProt Q9H3N8)
Hrh3 protein = Hrh3 protein (Rattus norvegicus, UniProt Q5PPG3)
Chain of Hrh3 protein (Q5PPG3 whole entry): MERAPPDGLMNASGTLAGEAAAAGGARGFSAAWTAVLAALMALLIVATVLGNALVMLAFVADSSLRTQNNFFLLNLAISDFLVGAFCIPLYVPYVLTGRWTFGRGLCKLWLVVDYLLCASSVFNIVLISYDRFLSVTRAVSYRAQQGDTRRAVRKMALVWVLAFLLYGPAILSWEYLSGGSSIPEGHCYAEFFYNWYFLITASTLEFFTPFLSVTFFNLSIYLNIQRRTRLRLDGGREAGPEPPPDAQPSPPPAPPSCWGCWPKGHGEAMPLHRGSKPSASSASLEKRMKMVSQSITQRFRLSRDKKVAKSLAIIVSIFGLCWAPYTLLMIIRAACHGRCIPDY

Chain of Histamine H4 receptor (Q9H3N8 whole entry): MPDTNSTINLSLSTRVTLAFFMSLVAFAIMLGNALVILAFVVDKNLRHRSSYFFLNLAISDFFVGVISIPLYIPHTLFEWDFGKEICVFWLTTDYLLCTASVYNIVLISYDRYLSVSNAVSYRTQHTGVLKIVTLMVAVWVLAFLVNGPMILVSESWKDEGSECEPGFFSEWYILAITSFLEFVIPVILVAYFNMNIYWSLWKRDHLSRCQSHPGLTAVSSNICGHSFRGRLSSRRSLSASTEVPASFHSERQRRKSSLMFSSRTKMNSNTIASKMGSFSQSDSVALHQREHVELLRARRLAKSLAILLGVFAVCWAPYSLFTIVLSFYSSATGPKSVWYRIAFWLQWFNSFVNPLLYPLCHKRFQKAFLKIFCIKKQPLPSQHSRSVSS
Chain of Histamine H2 receptor (P25021 whole entry): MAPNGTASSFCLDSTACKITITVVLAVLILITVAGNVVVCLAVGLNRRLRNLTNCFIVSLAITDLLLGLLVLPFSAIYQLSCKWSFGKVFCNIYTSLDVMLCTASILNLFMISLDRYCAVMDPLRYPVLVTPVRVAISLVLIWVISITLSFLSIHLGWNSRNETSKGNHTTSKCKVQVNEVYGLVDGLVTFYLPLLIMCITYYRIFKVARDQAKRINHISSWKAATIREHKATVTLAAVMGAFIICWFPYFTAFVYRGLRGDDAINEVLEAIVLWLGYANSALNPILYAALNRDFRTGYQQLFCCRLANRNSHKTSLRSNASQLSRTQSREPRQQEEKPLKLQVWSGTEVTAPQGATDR

In the case of `c1cc(OCCCN2CCCCC2)ccc1CN1CCCCC1` [1-(3-(4-(piperidin-1-ylmethyl)phenoxy)propyl)piperidine], the pKi (Histamine H2 receptor) was under 5.00, the pKi (Histamine H4 receptor) was under 5.00 and the pKi (Hrh3 protein) was 8.90.
